Experimental data published in patent US9067896B2, “Crystalline forms of 3-(2,6-dichloro-3,5-dimethoxy-phenyl)-1-{6-[4-(4-ethyl-piperazin-1-yl) -phenylamino]-pyrimidin-4-yl}-1-methyl-urea and salts thereof” (Novartis AG, priority 2009, dated 2015).
Where a name gives a salt, the structure may show the parent alone. Read-outs that look alike come from different tables or passages of the source. Each block holds one compound with its values, some of them ahead of it.

Experiments:
[1] = Intrinsic dissolution rate; assay type: physicochemical; conditions: 37° C., disc 200 rpm, 290 nm
Procedure: The intrinsic dissolution rate measurements were carried out in 0.5 cm^2 VanKel punch and die assemblies at a pellet pressure of 2000 pounds. […]
The intrinsic dissolution rate was determined for the phosphate salt in water, pH=6.8 and 0.1N HCl, and for the free base monohydrate in pH=6.8, 4.5 and 0.1N HCl. The measurements were carried out on a VanKel instrument using a Cary UV/VIS spectrophotometer (Table 2).

[2] = Pharmacokinetics / bioavailability in rats; assay type: in vivo; conditions: for concentration at 24 h / concentration at 8 h: read-out: Clast [μmol/L ± SE]; for half-life: read-out: t1/2 terminal elimination (converted); for Cmax: read-out: Cmax [μmol/L ± SE]
Procedure: The higher water solubility of the phosphate salt compared to the free base (and other acid salts, as described above) led to the development of a solution formulation (or composition), which would not be feasible with the free base due to solubility restrictions. For this experiment, the phosphate salt was prepared as follows. In a glass vial, 10.7 mg of the free base was dissolved in 4 ml THF. Phosphoric acid (1.76 ml) in acetone (0.01M) was added. The mixture was warmed to 50° C. for about 2 minutes. The vial was left open for partial evaporation at room temperature. Overnight, a suspension was formed, which was filtered yielding about 5.5 mg of an off-white powder. The bioavailabilities, in rats, of the active agents (the free base and its phosphate salt), formulated variously, are tabulated below (Table 10).

[3] = Hygroscopicity from DVS sorption/desorption isotherms; assay type: physicochemical
Procedure: Hygroscopicity was measured from sorption/desorption isotherms using Surface Measurement System DVS-1 at 25±0.5° C. Samples were evaluated at various humidities including 75%, 85%, and 95%.
The free base (anhydrous and monohydrate) and its phosphate salt (form A) were subjected to sorption and desorption cycle using a VTI brand instrument. The solids were collected after the experiment and analyzed. […] The DVS plots are shown in FIGS. 4A (free base, anhydrous), 4B (phosphate salt (form A) and 4C (free base, monohydrate). The maximum water uptake for the phosphate salt (form A) was less than 2% (i.e. 0.7%) at 25° C. up to 95% relative humidity (rh) (see Table 9). The maximum water uptake for the monohydrate was less than 1.4% at 25° C. up to 95% RH. The monohydrate with an approximate water content of 3% could not be completely dried during the experiment but the water that could be removed was reversibly reabsorbed. The plateau of existence of the monohydrate form is found to be within 10% and 95% RH with a slight hysteresis at the second desorption cycle.

Solution stability = assay type: physicochemical; conditions: 1 week at 50° C.
Procedure: The solution stability of the free base was tested in buffers ranging from pH 1 to pH 9 for 1 week at 50° C. At pH 5 and higher, the free base was stable, and after accounting for minor initial impurities, degradation was less than 2%. At pH 3, degradation was about 4% and at pH 1, degradation was about 15%. The stability was also tested in water and several organic solvents (1 week at 50° C.).
Without being bound by mechanism, the stability difference between the free base and phosphate salt may be due to the higher aqueous solubility of the phosphate salt compared to the free base, as well as the tendency of the phosphate salt to cause the pH of water to decrease, which may increase the rate of degradation.

[4] = rat, in vivo, iv, 5 mg/kg, rats, i.v. [5 mg/kg]
[5] = rat, in vivo, po, 8.57 mg/kg, rats, free base p.o., suspension (water containing 0.5% HPMC) [8.57 mg/kg]
[6] = rat, in vivo, po, 10 mg/kg, rats, colloidal solution (water, ethanol and cremophor EL) [10 mg/kg]
[7] = rat, in vivo, po, 10 mg/kg, rats, p.o., colloidal solution (water, ethanol and cremophor EL) [10 mg/kg]
[8] = rats, free base p.o., suspension (water containing 0.5% HPMC) [8.57 mg/kg]
[9] = rats, p.o., colloidal solution (water, ethanol and cremophor EL) [10 mg/kg]
[10] = rat, in vivo, po, 8.57 mg/kg, rats, phosphate salt p.o., supension (water containing 0.5% HPMC) [8.57 mg/kg]
[11] = rat, in vivo, po, 10 mg/kg, pH 4.7, rats, p.o., solution (PEG300/acetate buffer pH 4.7 1:1) [10 mg/kg]
[12] = rats, p.o., solution (PEG300/acetate buffer pH 4.7 1:1) [10 mg/kg]
[13] = rats, phosphate salt p.o., supension (water containing 0.5% HPMC) [8.57 mg/kg]
[14] = Relative humidity 5%, after the 95% step
[15] = Relative humidity 5%, before the 95% step
[16] = Relative humidity 25%, after the 95% step
[17] = Relative humidity 25%, before the 95% step
[18] = Relative humidity 50%, after the 95% step
[19] = Relative humidity 50%, before the 95% step
[20] = Relative humidity 75%, after the 95% step
[21] = Relative humidity 75%, before the 95% step
[22] = Relative humidity 85%, after the 95% step
[23] = Relative humidity 85%, before the 95% step

Intrinsic DR value ([1]; HCl 0.1N, listed as Anhydrous Free Base): 0.28 mg/min/cm^2
Intrinsic DR value ([1]; Water, listed as Anhydrous Free Base): 0.01 mg/min/cm^2
AUC(0-inf) [2, 4]: 2.47 µM·h
concentration at 5 min ([2]; rat, in vivo, iv, 5 mg/kg, rats, i.v. [5 mg/kg], read-out: C5 min [μmol/L ± SE]): 0.972 ± 0.404 µmol/L
concentration at 24 h [2, 4]: 0.003 ± 0.003 µmol/L
half-life [2, 4]: 4.5 h
clearance ([2]; rat, in vivo, iv, rats, i.v. [5 mg/kg]): 60 mL/min/kg
Vd ([2]; rat, in vivo, iv, rats, i.v. [5 mg/kg], read-out: Vss): 9.6 L/kg
AUC(0-inf) [2, 5]: 1.55 µM·h
Tmax [2, 5]: 2 h
concentration at 8 h [2, 5]: 0.077 ± 0.038 µmol/L
Cmax [2, 5]: 0.202 ± 0.021 µmol/L
half-life [2, 5]: 4.3 h
AUC(0-inf) [2, 6]: 1.44 µM·h
Tmax [2, 6]: 3 h
concentration at 24 h [2, 7]: 0.01 ± 0.005 µmol/L
Cmax [2, 7]: 0.154 ± 0.026 µmol/L
half-life [2, 7]: 5.2 h
AUC (0-∞) dose ^A [(h · μmol/L)/(mg/kg)] [2, 8]: 0.18 (h · μmol/L)/(mg/kg)
BAV f [%] [2, 8]: 37 ± 11%
tlast [2, 8]: 8 h
AUC (0-∞) dose ^A [(h · μmol/L)/(mg/kg)] ([2]; rats, i.v. [5 mg/kg]): 0.49 (h · μmol/L)/(mg/kg)
tlast ([2]; rats, i.v. [5 mg/kg]): 24 h
AUC (0-∞) dose ^A [(h · μmol/L)/(mg/kg)] [2, 9]: 0.14 (h · μmol/L)/(mg/kg)
BAV f [%] [2, 9]: 29%
tlast [2, 9]: 24 h
hygroscopicity (in words) ([3]; listed as anhydrous free base): slightly hygroscopic
degradation in solution (Solution stability; 1:1 acetonitrile/water, listed as free base): about 8%
degradation in solution (Solution stability; buffer pH 1): about 15%
degradation in solution (Solution stability; buffer pH 3): about 4%
degradation in solution (Solution stability; buffers pH 5 and higher): less than 2%
degradation in solution (Solution stability; isopropanol): stable
degradation in solution (Solution stability; water, listed as free base): stable
Structure (SMILES): CCN1CCN(c2ccc(Nc3cc(N(C)C(=O)Nc4c(Cl)c(OC)cc(OC)c4Cl)ncn3)cc2)CC1 [Free Base, 3-(2,6-Dichloro-3,5-dimethoxy-phenyl)-1-{6-[4-(4-ethyl-piperazin-1-yl)-phenylamino]-pyrimidin-4-yl}-1-methyl-urea]

Intrinsic DR value ([1]; HCl 0.1N): 1.0661 mg/min/cm^2
Intrinsic DR value ([1]; Water): 0.3279 mg/min/cm^2
Intrinsic DR value ([1]; pH = 6.8): 0.0056 mg/min/cm^2
bioavailability relative to the free base ([2]; oral administration): ~2 fold
AUC(0-inf) [2, 10]: 1.23 µM·h
Tmax [2, 10]: 3 h
concentration at 8 h [2, 10]: 0.062 ± 0.006 µmol/L
Cmax [2, 10]: 0.15 ± 0.031 µmol/L
half-life [2, 10]: 4.4 h
AUC(0-inf) [2, 11]: 2.52 µM·h
Tmax [2, 11]: 4 h
concentration at 8 h [2, 11]: 0.148 ± 0.018 µmol/L
Cmax [2, 11]: 0.263 ± 0.083 µmol/L
AUC (0-∞) dose ^A [(h · μmol/L)/(mg/kg)] [2, 12]: 0.25 (h · μmol/L)/(mg/kg)
BAV f [%] [2, 12]: 51%
t1/2 terminal elimination [2, 12]: 4.8 h
tlast [2, 12]: 8 h
AUC (0-∞) dose ^A [(h · μmol/L)/(mg/kg)] [2, 13]: 0.14 (h · μmol/L)/(mg/kg)
BAV f [%] [2, 13]: 29 ± 3%
tlast [2, 13]: 8 h
weight gain due to water absorption (DVS) ([3]; 75% RH, listed as phosphate salt): < 1%
weight gain due to water absorption (DVS) ([3]; 85% RH): < 1%
weight gain due to water absorption (DVS) ([3]; 95% RH, listed as phosphate salt): < 2%
Adsorption Weight Gain (%) ([3]; Relative humidity 0%): 0.000%
Desorption Weight Gain (%) ([3]; Relative humidity 0%): 0.000%
Adsorption Weight Gain (%) [3, 14]: 0.000%
Desorption Weight Gain (%) [3, 14]: 0.048%
Adsorption Weight Gain (%) [3, 15]: 0.016%
Desorption Weight Gain (%) [3, 15]: 0.091%
Adsorption Weight Gain (%) [3, 16]: 0.177%
Desorption Weight Gain (%) [3, 16]: 0.447%
Adsorption Weight Gain (%) [3, 17]: 0.165%
Desorption Weight Gain (%) [3, 17]: 0.507%
Adsorption Weight Gain (%) [3, 18]: 0.334%
Desorption Weight Gain (%) [3, 18]: 0.705%
Adsorption Weight Gain (%) [3, 19]: 0.309%
Desorption Weight Gain (%) [3, 19]: 0.738%
Adsorption Weight Gain (%) [3, 20]: 0.467%
Desorption Weight Gain (%) [3, 20]: 1.275%
Adsorption Weight Gain (%) [3, 21]: 0.437%
Desorption Weight Gain (%) [3, 21]: 1.022%
Adsorption Weight Gain (%) [3, 22]: 0.520%
Desorption Weight Gain (%) [3, 22]: 1.421%
Adsorption Weight Gain (%) [3, 23]: 0.495%
Desorption Weight Gain (%) [3, 23]: 1.245%
Adsorption Weight Gain (%) ([3]; Relative humidity 95%): 0.653%
Desorption Weight Gain (%) ([3]; Relative humidity 95%): 1.547%
hygroscopicity (in words) ([3]; listed as phosphate salt): slightly hygroscopic
degradation in solution (Solution stability; 1:1 acetonitrile/water, listed as phosphate salt): ~70%
degradation in solution (Solution stability; acetonitrile, form A): stable
degradation in solution (Solution stability; methanol, form A): about 8%
degradation in solution (Solution stability; water, listed as phosphate salt): about 45%
Structure (SMILES): CCN1CCN(c2ccc(Nc3cc(N(C)C(=O)Nc4c(Cl)c(OC)cc(OC)c4Cl)ncn3)cc2)CC1 [Phosphate salt (form A)]
